Experimental data as given in publication PMC4844649, “A first-in-Asian phase 1 study to evaluate safety, pharmacokinetics and clinical activity of VS-6063, a focal adhesion kinase (FAK) inhibitor in Japanese patients with advanced solid tumors” (Cancer Chemotherapy and Pharmacology, 2016).

Key:
[1] = basis of the BID schedule; first-in-human experience; cited from earlier work
[2] = tested on: advanced solid tumor malignancies; assay: antitumor activity by RECIST v1.1; format: in vivo, human
Experimental: This was a phase 1, open-label, dose-escalation study to evaluate the safety and PK of VS-6063, a FAK inhibitor in Japanese subjects with advanced solid tumor malignancies. This study was expected to enroll up to 18 evaluable subjects with non-hematologic malignancies if 6 subjects were assigned at each of the 3 planned dose levels of 200, 400, and 600 mg BID. VS-6063 was administered orally, BID, in continuous 21 day cycles. Subject enrollment proceeded according to a standard 3 + 3 design. In the absence of DLT, each subject received oral VS-6063 (BID) for a minimum of 21 days of continuous daily dosing (1 cycle) and could continue to receive additional cycles of study treatment until disease progression was documented or other treatment discontinuation criteria were met. All patients within a cohort were required to complete 1 cycle (21 days) of dosing with <1 of 3 or <2 of 6 subjects experiencing a DLT prior to escalation to the next dose level in a new cohort. Three subjects were to be treated at each dose level until the first instance of DLT, after which up to 6 subjects were to be treated at that dose level. […] The MTD was defined as the highest dose level studied at which <1 subject out of 3 or <2 subjects out of 6 experienced a DLT. The RP2D was to be determined in discussion among the sponsor, medical monitor, and investigators. Observations related to PK and any VS-6063-related toxicities were included in the rationale supporting the RP2D. Safety and tolerability was assessed by the incidence and severity of AEs as determined by National Cancer Institute (NCI) Common Terminology Criteria for Adverse Events (CTCAE v4.03). The antitumor activity of study treatment was assessed according to the Response Evaluation Criteria in Solid Tumors (RECIST v1.1).

CYP 2C, 2D, 3A = conditions: preclinical evidence; no reference given; cited from earlier work
other nontarget kinases = conditions: background statement, no reference given; cited from earlier work
[3] = 24-h urine collection, elimination of VS-6063 and metabolites; format: in vivo, human; conditions: all dose cohorts
Source text: To assess the elimination of VS-6063 and its potential metabolites, total 24-h urine output was to be collected on Cycle 1 Day 1 and Cycle 1 Day 15 in conjunction with PK sampling.

recombinant human FAK = conditions: in vitro; background statement, no reference given; read-out: IC50, inhibition of recombinant human FAK activity; cited from earlier work
recombinant human Pyk2 = conditions: in vitro; background statement, no reference given; read-out: IC50, inhibition of recombinant human Pyk2 activity; cited from earlier work

Compound: CNC(=O)c1ccc(Nc2ncc(C(F)(F)F)c(NCc3nccnc3N(C)S(C)(=O)=O)n2)cc1 [VS-6063, defactinib]
- observed human half-life [1]: 9.0 h
- median time to disease progression, range across dose cohorts ([2]; 200, 400, 600 mg cohorts): 61 to 64 days
- objective radiographic responses ([2]; 200–600 mg BID): No objective radiographic responses were observed
- best response overall: stable disease ([2]; out of 9 subjects (33 %), 1 subject in each dose cohort): 3 subjects
- durable stable disease ([2]; two subjects (malignant mesothelioma 400 mg and rectal cancer 600 mg)): approximately 24 weeks
- potential for CYP 2C-, 2D- or 3A-mediated drug interactions (CYP 2C, 2D, 3A): low potential
- selectivity for FAK and Pyk2 over other nontarget kinases (other nontarget kinases): more than 100 fold
- detection in urine [3]: detected in the urine of all patients
- amount in urine, percent relative to the total dose administered, range ([3]; 24-h urine): 0.0439 to 0.356%
- CL renal ([3]; human, oral, 24-h urine, Days 1 and 15, read-out: mean renal clearance (CLr), range): 1.43 to 2.98 mL/min
- IC50 (recombinant human FAK): 0.6 nM
- IC50 (recombinant human Pyk2): 0.6 nM
